From US8372863B2, “Tetrahydro-1H-pyrrolo fused pyridones” (Merck Sharp & Dohme Corp., priority 2008, dated 2013) come the findings set out here.

The target in the assay is PHD2 (Homo sapiens, UniProt Q9GZT9). Put plainly: PHD2 / HIF-1α peptide hydroxylation assay with time resolved fluorescence readout (PHD2 binding activity). In kind it is biochemical. Particulars: FLAG-tagged full length PHD2; 0.2 μM 2-oxoglutarate, 0.5 μM HIF-1α peptide; read-out: PHD2 Activity (PHD2 binding activity expressed as IC50). The protocol:
After a 30 min preincubation at room temperature, the enzymatic reactions were initiated by the addition of 4 μL of substrates (final concentrations of 0.2 μM 2-oxoglutarate and 0.5 μM HIF-1α peptide biotinyl-DLDLEMLAPYIPMDDDFQL). After 2 hr at room temperature, the reactions were terminated and signals were developed by the addition of a 25 μL quench/detection mix to a final concentration of 1 mM ortho-phenanthroline, 0.1 mM EDTA, 0.5 nM anti-(His)6 LANCE reagent (Perkin-Elmer Life Sciences), 100 nM AF647-labeled streptavidin (Invitrogen), and 2 μg/ml (His)6-VHL complex (S. Tan(2001) Protein Expr. Purif 21, 224-234). The ratio of time resolved fluorescence signals at 665 and 620 nm was determined, and percent inhibition was calculated relative to an uninhibited control sample run in parallel.

Where a name gives a salt, the structure may show the parent alone.

Sequence of PHD2 (Q9GZT9 whole entry): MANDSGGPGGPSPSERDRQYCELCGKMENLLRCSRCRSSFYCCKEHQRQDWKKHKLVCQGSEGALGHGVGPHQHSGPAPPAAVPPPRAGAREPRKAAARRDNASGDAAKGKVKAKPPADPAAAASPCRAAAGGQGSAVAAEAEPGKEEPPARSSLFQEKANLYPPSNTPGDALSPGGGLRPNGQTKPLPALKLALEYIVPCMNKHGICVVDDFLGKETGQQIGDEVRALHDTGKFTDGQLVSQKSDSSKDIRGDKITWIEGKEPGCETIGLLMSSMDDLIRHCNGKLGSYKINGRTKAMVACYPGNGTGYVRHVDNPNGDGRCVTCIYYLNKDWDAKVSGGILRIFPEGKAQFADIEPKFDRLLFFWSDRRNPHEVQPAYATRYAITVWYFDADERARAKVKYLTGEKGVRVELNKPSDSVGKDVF

In the case of `CC1c2c(c(O)c(C(=O)NCC(=O)O)c(=O)n2Cc2ccc(-c3ccccc3)cc2)CN1C(=O)c1cscn1` (single isomer, unassigned) [55 Enantiomer 1], the half-maximal inhibitory concentration (IC50) is less than 10 nM.
Consider `CC1c2c(c(O)c(C(=O)NCC(=O)O)c(=O)n2Cc2ccc(-c3ccccc3)cc2)CN1C(=O)c1cscn1` (single isomer, unassigned) [55 Enantiomer 2], for which the IC50 was 10 to 100 nM.
The value for `C=CCCC(=O)N1Cc2c(O)c(C(=O)NCC(=O)O)c(=O)n(Cc3ccc(C(F)(F)F)cc3)c2C1` [Example 1, N-({4-hydroxy-2-oxo-6-pent-4-enoyl-1-[4-(trifluoromethyl)benzyl]-2,5,6,7-tetrahydro-1H-pyrrolo[3,4-b]pyridin-3-yl}carbonyl)glycine] was less than 10 nM; that for `C=CCCC(=O)N1Cc2c(O)c(C(=O)NCC(=O)O)c(=O)n(Cc3ccc(-c4ccccc4)cc3)c2C1` [Example 2, N-{[1-(biphenyl-4-ylmethyl)-4-hydroxy-2-oxo-6-pent-4-enoyl-2,5,6,7-tetrahydro-1H-pyrrolo[3,4-b]pyridin-3-yl]carbonyl}glycine] was less than 10 nM; that for `C=CCCC(=O)N1Cc2c(O)c(C(=O)NCC(=O)O)c(=O)n(Cc3nc4ccccc4s3)c2C1` [Example 3, N-{[1-(1,3-benzothiazol-2-ylmethyl)-4-hydroxy-2-oxo-6-pent-4-enoyl-2,5,6,7-tetrahydro-1H-pyrrolo[3,4-b]pyridin-3-yl]carbonyl}glycine] was less than 10 nM.
The value for `C=CCCC(=O)N1Cc2c(O)c(C(=O)NCC(=O)O)c(=O)n(Cc3cccc(Br)c3)c2C1` [Example 4, N-{[1-(3-bromobenzyl)-4-hydroxy-2-oxo-6-pent-4-enoyl-2,5,6,7-tetrahydro-1H-pyrrolo[3,4-b]pyridin-3-yl]carbonyl}glycine] was less than 10 nM; that for `C=CCCC(=O)N1Cc2c(O)c(C(=O)NCC(=O)O)c(=O)n(Cc3ccc(Br)cc3)c2C1C` (stereo not drawn) [Example 5, N-{[1-(4-bromobenzyl)-4-hydroxy-7-methyl-2-oxo-6-pent-4-enoyl-2,5,6,7-tetrahydro-1H-pyrrolo[3,4-b]pyridin-3-yl]carbonyl}glycine] was less than 10 nM.
The value for `C=CCCC(=O)N1Cc2c(c(O)c(C(=O)NCC(=O)O)c(=O)n2Cc2ccc(Br)cc2)C1C` (stereo not drawn) [Example 6, N-{[1-(4-bromobenzyl)-4-hydroxy-5-methyl-2-oxo-6-pent-4-enoyl-2,5,6,7-tetrahydro-1H-pyrrolo[3,4-b]pyridin-3-yl]carbonyl}glycine] was less than 10 nM.
Consider `O=C(O)CNC(=O)c1c(O)c2c(n(Cc3ccc(C(F)(F)F)cc3)c1=O)CNC2` [Example 7, N-({4-hydroxy-2-oxo-1-[4-(trifluoromethyl)benzyl]-2,5,6,7-tetrahydro-1H-pyrrolo[3,4-b]pyridin-6-ium-3-yl}carbonyl)glycine trifluoroacetate], for which the IC50 is less than 10 nM.
As to `O=C(O)CNC(=O)c1c(O)c2c(n(Cc3ccc(C(F)(F)F)cc3)c1=O)CN(C(=O)c1cccc(Cl)c1)C2` [Example 8, N-({6-(3-chlorobenzoyl)-4-hydroxy-2-oxo-1-[4-(trifluoromethyl)benzyl]-2,5,6,7-tetrahydro-1H-pyrrolo[3,4-b]pyridin-3-yl}carbonyl)glycine], the IC50 was less than 10 nM.
Consider `CC(=O)N1Cc2c(O)c(C(=O)NCC(=O)O)c(=O)n(Cc3ccc(C(F)(F)F)cc3)c2C1` [Example 9, N-({6-acetyl-4-hydroxy-2-oxo-1-[4-(trifluoromethyl)benzyl]-2,5,6,7-tetrahydro-1H-pyrrolo[3,4-b]pyridin-3-yl}carbonyl)glycine], for which the IC50 was less than 10 nM.
In the case of `CS(=O)(=O)N1Cc2c(O)c(C(=O)NCC(=O)O)c(=O)n(Cc3ccc(C(F)(F)F)cc3)c2C1` [Example 10, N-({4-hydroxy-6-(methylsulfonyl)-2-oxo-1-[4-(trifluoromethyl)benzyl]-2,5,6,7-tetrahydro-1H-pyrrolo[3,4-b]pyridin-3-yl}carbonyl)glycine] it was less than 10 nM.

The term IC50 denotes the point on the concentration scale where inhibition reaches its midpoint.
